One test deals with BRM (Homo sapiens, UniProt P51531). In words: ATPase catalytic activity assay of BRM (ADP-Glo). It counts as biochemical. The method, boiled down:
(§1)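 Two room-temperature incubations follow the reaction: 40 min to eliminate unused ATP, then 60 min to turn ADP into ATP driving luciferase light output. Activity is read as luminescence proportional to ADP formed.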

The next test concerns the target BRG-1 (Homo sapiens, UniProt P51532). In words: ATPase catalytic activity assay of BRG-1 (ADP-Glo). Type of test: biochemical. Conditions: ATPase catalytic activity, ADP-Glo; for Emax: read-out: BRG1 Max % Inhibition. The method in brief: as §1
Background: ADP-Glo turns the ADP formed in a reaction into a luminescent signal.

We go through 21 compounds from patent publication US12685735B2 (Foghorn Therapeutics Inc., priority 2020, dated 2026).

Like-named read-outs stand apart in the source and are kept apart here.

BRG-1, sequence (P51532 whole entry): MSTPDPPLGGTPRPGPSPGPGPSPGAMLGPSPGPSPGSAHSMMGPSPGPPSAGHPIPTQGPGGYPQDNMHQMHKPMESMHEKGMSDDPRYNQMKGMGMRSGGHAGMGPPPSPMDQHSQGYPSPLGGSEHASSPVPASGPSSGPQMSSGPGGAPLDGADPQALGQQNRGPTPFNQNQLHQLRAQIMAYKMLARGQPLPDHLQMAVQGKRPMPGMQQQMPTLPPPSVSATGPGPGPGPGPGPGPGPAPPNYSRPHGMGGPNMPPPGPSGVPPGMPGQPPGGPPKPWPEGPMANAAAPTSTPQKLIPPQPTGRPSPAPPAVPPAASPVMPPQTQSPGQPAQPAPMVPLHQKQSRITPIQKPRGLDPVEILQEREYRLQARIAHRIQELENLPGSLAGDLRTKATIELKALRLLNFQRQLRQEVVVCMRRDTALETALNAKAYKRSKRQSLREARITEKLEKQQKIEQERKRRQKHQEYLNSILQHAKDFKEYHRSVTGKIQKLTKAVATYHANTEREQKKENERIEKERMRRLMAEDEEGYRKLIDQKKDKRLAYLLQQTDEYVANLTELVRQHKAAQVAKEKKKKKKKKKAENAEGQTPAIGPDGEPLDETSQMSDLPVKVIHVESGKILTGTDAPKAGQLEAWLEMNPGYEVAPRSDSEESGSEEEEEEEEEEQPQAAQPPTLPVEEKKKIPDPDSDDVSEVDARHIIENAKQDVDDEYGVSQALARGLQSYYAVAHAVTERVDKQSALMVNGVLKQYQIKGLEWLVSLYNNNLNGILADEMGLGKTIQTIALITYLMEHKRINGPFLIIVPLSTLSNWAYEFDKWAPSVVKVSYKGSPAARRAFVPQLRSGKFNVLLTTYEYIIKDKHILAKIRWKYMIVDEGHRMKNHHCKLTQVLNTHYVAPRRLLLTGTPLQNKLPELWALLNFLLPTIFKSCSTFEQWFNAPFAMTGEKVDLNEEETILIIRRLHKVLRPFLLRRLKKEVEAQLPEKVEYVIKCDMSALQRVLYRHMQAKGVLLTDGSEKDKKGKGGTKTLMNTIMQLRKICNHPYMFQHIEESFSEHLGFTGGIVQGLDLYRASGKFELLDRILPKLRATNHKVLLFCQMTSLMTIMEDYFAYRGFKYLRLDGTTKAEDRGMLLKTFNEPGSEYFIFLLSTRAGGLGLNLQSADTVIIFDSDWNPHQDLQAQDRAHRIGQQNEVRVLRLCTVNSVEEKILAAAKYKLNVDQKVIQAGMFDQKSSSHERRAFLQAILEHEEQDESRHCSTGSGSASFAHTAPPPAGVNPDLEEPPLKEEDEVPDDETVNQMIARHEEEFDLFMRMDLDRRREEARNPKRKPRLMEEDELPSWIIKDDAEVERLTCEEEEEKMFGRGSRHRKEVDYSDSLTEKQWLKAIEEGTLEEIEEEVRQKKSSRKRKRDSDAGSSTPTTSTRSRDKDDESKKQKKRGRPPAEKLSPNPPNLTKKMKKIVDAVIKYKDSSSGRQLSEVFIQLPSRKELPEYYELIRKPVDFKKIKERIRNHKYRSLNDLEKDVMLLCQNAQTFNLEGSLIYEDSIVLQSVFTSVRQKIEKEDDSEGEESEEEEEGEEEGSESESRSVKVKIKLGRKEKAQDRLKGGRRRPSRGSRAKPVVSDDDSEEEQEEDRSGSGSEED
BRM, sequence (P51531 whole entry): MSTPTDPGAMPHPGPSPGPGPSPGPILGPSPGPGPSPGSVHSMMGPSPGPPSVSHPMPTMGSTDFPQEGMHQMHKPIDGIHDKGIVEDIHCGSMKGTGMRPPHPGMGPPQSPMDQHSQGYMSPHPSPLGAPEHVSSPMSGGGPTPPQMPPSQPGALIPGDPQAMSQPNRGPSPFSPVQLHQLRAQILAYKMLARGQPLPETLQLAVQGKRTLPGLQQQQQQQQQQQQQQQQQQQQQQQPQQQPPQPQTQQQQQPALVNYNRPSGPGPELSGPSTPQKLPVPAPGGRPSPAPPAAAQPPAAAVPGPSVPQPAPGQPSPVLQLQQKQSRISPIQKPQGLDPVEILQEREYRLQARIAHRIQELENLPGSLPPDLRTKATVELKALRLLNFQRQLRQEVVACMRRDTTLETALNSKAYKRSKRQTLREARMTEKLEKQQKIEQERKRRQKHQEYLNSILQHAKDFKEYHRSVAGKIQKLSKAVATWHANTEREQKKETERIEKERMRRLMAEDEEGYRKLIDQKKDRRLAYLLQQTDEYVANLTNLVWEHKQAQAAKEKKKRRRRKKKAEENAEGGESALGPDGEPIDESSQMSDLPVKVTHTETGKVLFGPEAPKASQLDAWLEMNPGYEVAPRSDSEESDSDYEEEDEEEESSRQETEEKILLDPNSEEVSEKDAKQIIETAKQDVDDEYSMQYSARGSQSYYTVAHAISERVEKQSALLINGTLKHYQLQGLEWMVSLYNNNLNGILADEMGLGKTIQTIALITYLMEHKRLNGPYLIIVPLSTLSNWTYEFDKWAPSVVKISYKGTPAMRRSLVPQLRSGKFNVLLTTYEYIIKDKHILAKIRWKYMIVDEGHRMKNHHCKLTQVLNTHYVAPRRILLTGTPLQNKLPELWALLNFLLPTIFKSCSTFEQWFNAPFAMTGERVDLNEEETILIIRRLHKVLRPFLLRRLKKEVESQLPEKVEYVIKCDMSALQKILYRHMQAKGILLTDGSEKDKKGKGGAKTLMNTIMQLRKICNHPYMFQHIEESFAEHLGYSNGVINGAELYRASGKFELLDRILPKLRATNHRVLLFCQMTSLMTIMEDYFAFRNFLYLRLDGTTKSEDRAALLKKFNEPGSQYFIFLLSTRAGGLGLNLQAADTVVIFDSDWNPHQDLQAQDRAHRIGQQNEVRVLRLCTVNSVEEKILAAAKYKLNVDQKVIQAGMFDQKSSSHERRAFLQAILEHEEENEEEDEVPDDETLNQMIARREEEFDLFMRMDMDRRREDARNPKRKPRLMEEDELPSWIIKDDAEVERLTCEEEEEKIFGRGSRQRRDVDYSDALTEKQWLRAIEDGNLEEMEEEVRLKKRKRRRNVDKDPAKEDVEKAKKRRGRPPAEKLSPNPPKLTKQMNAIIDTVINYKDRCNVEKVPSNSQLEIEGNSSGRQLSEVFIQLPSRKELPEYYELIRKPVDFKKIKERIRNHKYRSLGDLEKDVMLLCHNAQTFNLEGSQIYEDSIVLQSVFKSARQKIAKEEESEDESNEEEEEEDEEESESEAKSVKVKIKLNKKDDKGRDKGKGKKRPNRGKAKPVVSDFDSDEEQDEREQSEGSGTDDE

For orientation: IC50 means the point on the concentration scale where inhibition reaches its midpoint. Regarding `CC(C)S(=O)(=O)c1cccc(C(=O)NCC(=O)Nc2nc(-c3cccc(-c4cc(C#N)cc(C#N)c4)c3)cs2)c1` [Compound 21, N-(2-((4-(3′,5′-dicyano-[1,1′-biphenyl]-3-yl)thiazol-2-yl)amino)-2-oxoethyl)-3-(isopropylsulfonyl)benzamide], the “BRM Max % Inhibition” value on BRM is reported as greater than 80%. The figures for the IC50 at BRM (read-out: BRM IC50 (μM)*) and on BRG-1 (read-out: BRG1 IC50 (μM)*) were 0.1 to 1 µM and 1 to 5 µM, respectively. Further, the Emax on BRG-1 is greater than 70%.

Regarding `CC(C)S(=O)(=O)c1cccc(C(=O)NCC(=O)Nc2nc(-c3cccc(-c4ccnc(N)c4)c3)cs2)c1` [Compound 22, N-(2-((4-(3-(2-aminopyridin-4-yl)phenyl)thiazol-2-yl)amino)-2-oxoethyl)-3-(isopropylsulfonyl)benzamide], the “BRM Max % Inhibition” value at BRM is recorded as greater than 95%. In addition, the IC50 is less than 0.1 µM against BRM (BRM IC50 (μM)*) and 0.1 to 1 µM against BRG-1 (BRG1 IC50 (μM)*).

For `CC(C)S(=O)(=O)c1cccc(C(=O)NCC(=O)Nc2nc(-c3cccc(-c4cc(C#N)cc(CO)c4)c3)cs2)c1` [Compound 23, N-(2-((4-(3′-cyano-5′-(hydroxymethyl)-[1,1′-biphenyl]-3-yl)thiazol-2-yl)amino)-2-oxoethyl)-3-(isopropylsulfonyl)benzamide], the “BRM Max % Inhibition” value on BRM is given as greater than 90%. Also, the IC50 at BRM (read-out: BRM IC50 (μM)*) and on BRG-1 (read-out: BRG1 IC50 (μM)*) was 0.1 to 1 µM throughout. Besides, the Emax on BRG-1 was greater than 80%.

As for `CC(C)S(=O)(=O)c1cccc(C(=O)NCC(=O)Nc2nc(-c3cccc(-c4cccc(C#N)c4)c3)cs2)c1` [Compound 24, N-(2-((4-(3′-cyano-[1,1′-biphenyl]-3-yl)thiazol-2-yl)amino)-2-oxoethyl)-3-(isopropylsulfonyl)benzamide], the “BRM Max % Inhibition” value at BRM is listed as greater than 90%. Besides, the IC50 is 0.1 to 1 µM at BRM (read-out: BRM IC50 (μM)*) and 1 to 5 µM at BRG-1 (read-out: BRG1 IC50 (μM)*).

Turning to `CC(=O)N(C)c1cc(-c2cccc(-c3csc(NC(=O)CNC(=O)c4cccc(S(=O)(=O)C(C)C)c4)n3)c2)ccn1` [Compound 25, 3-(isopropylsulfonyl)-N-(2-((4-(3-(2-(N-methylacetamido)pyridin-4-yl)phenyl)thiazol-2-yl)amino)-2-oxoethyl)benzamide], on BRM, the “BRM Max % Inhibition” value is reported as greater than 90%. Besides, the IC50 was less than 0.1 µM at BRM (read-out: BRM IC50 (μM)*) and 0.1 to 1 µM on BRG-1 (read-out: BRG1 IC50 (μM)*). Besides, on BRG-1, the Emax was greater than 80%.

Take `CC(C)S(=O)(=O)c1cccc(C(=O)NCC(=O)Nc2nc(-c3cccc(-c4ccnc(CO)c4)c3)cs2)c1` [Compound 26, N-(2-((4-(3-(2-(hydroxymethyl)pyridin-4-yl)phenyl)thiazol-2-yl)amino)-2-oxoethyl)-3-(isopropylsulfonyl)benzamide]: the “BRM Max % Inhibition” value at BRM is recorded as greater than 90%. Also, the results for the IC50 on BRM (read-out: BRM IC50 (μM)*) and on BRG-1 (read-out: BRG1 IC50 (μM)*) were less than 0.1 µM and 0.1 to 1 µM, respectively.

`CC(C)S(=O)(=O)c1cccc(C(=O)NCC(=O)Nc2nc(-c3cccc(-c4cc(CO)cc(C(F)(F)F)c4)c3)cs2)c1` [Compound 27, N-(2-((4-(3′-(hydroxymethyl)-5′-(trifluoromethyl)-[1,1′-biphenyl]-3-yl)thiazol-2-yl)amino)-2-oxoethyl)-3-(isopropylsulfonyl)benzamide]: the “BRM Max % Inhibition” value at BRM was greater than 95%. The IC50 is less than 0.1 µM at BRM (read-out: BRM IC50 (μM)*) and 0.1 to 1 µM at BRG-1 (read-out: BRG1 IC50 (μM)*).

Regarding `CC(C)S(=O)(=O)c1cccc(C(=O)NCC(=O)Nc2nc(-c3cccc(-c4cccc(Cl)c4)c3)cs2)c1` [Compound 28, N-(2-((4-(3′-chloro-[1,1′-biphenyl]-3-yl)thiazol-2-yl)amino)-2-oxoethyl)-3-(isopropylsulfonyl)benzamide], the “BRM Max % Inhibition” value on BRM was greater than 80%. Also, the IC50 against BRM (BRM IC50 (μM)*) was 0.1 to 1 µM; at BRG-1 (BRG1 IC50 (μM)*), 1 to 5 µM.

For `COc1cc(-c2cccc(-c3csc(NC(=O)CNC(=O)c4cccc(S(=O)(=O)C(C)C)c4)n3)c2)ccn1` [Compound 29, 3-(isopropylsulfonyl)-N-(2-((4-(3-(2-methoxypyridin-4-yl)phenyl)thiazol-2-yl)amino)-2-oxoethyl)benzamide], the “BRM Max % Inhibition” value at BRM is listed as greater than 90%. In addition, the IC50 at BRM (read-out: BRM IC50 (μM)*) and at BRG-1 (read-out: BRG1 IC50 (μM)*) was 0.1 to 1 µM in each case.

With `CC(C)S(=O)(=O)c1cccc(C(=O)NCC(=O)Nc2nc(-c3cccc(-c4cc(Cl)cc(Cl)c4)c3)cs2)c1` [Compound 30, N-(2-((4-(3′,5′-dichloro-[1,1′-biphenyl]-3-yl)thiazol-2-yl)amino)-2-oxoethyl)-3-(isopropylsulfonyl)benzamide], at BRM, the “BRM Max % Inhibition” value is reported as greater than 90%. In addition, the IC50 at BRM (read-out: BRM IC50 (μM)*) lay in the range of 0.1 to 1 µM; on BRG-1 (read-out: BRG1 IC50 (μM)*) it was 1 to 5 µM.

`CC(C)S(=O)(=O)c1cccc(C(=O)NCC(=O)Nc2nc(-c3cccc(-c4cccc(CN)c4)c3)cs2)c1` [Compound 31, N-(2-((4-(3′-(aminomethyl)-[1,1′-biphenyl]-3-yl)thiazol-2-yl)amino)-2-oxoethyl)-3-(isopropylsulfonyl)benzamide]: the “BRM Max % Inhibition” value at BRM is given as greater than 90%. Also, the IC50 is 0.1 to 1 µM at BRM (read-out: BRM IC50 (μM)*) and 1 to 5 µM at BRG-1 (read-out: BRG1 IC50 (μM)*). The Emax on BRG-1 was greater than 70%.

As to `COC[C@H](NC(=O)c1cccc(S(=O)(=O)C(C)C)c1)C(=O)Nc1nc(-c2cccc(-c3ccnc(C)c3)c2)cs1` [Compound 32, (S)-3-(isopropylsulfonyl)-N-(3-methoxy-1-((4-(3-(2-methylpyridin-4-yl)phenyl)thiazol-2-yl)amino)-1-oxopropan-2-yl)benzamide], on BRM, the “BRM Max % Inhibition” value was greater than 95%. In addition, the IC50 on BRM (read-out: BRM IC50 (μM)*) and at BRG-1 (read-out: BRG1 IC50 (μM)*) was 0.1 to 1 µM throughout. For the same compound, the Emax on BRG-1 was greater than 80%.

With `CC(C)S(=O)(=O)c1cccc(C(=O)NCC(=O)Nc2nc(-c3cc(C#N)cc(-c4ccc(CN)cc4)c3)cs2)c1` [Compound 33, N-[2-[[4-[3-[4-(aminomethyl)phenyl]-5-cyano-phenyl]thiazol-2-yl]amino]-2-oxo-ethyl]-3-isopropylsulfonyl-benzamide], on BRM, the “BRM Max % Inhibition” value is greater than 70%. In addition, the IC50 at BRM (read-out: BRM IC50 (μM)*) and at BRG-1 (read-out: BRG1 IC50 (μM)*) was greater than 5 µM in each case. Also, the Emax at BRG-1 was greater than 80%.

Regarding `CC(C)S(=O)(=O)c1cccc(C(=O)NCC(=O)Nc2nc(-c3cccc(-c4cccnc4)c3)cs2)c1` [Compound 39, 3-isopropylsulfonyl-N-[2-oxo-2-[[4-[3-(3-pyridyl)phenyl]thiazol-2-yl]amino]ethyl]benzamide], the “BRM Max % Inhibition” value on BRM was greater than 95%. Also, the results for the IC50 on BRM (read-out: BRM IC50 (μM)*) and at BRG-1 (read-out: BRG1 IC50 (μM)*) were 0.1 to 1 µM and 1 to 5 µM, respectively. For the same compound, the Emax on BRG-1 was greater than 90%.

Consider `CC(C)S(=O)(=O)c1cccc(C(=O)NCC(=O)Nc2nc(-c3cccc(-c4ccnc(CN(C)C)c4)c3)cs2)c1` [Compound 45, N-(2-((4-(3-(2-((dimethylamino)methyl)pyridin-4-yl)phenyl)thiazol-2-yl)amino)-2-oxoethyl)-3-(isopropylsulfonyl)benzamide], for which the “BRM Max % Inhibition” value on BRM is on record as greater than 95%. The half-maximal inhibitory concentration (IC50) at BRM (read-out: BRM IC50 (μM)*) was less than 0.1 µM; on BRG-1 (read-out: BRG1 IC50 (μM)*), 1 to 5 µM.

In the case of `Cc1ccc(C(=O)NCC(=O)Nc2nc(-c3cccc(-c4ccn(C)n4)c3)cs2)cc1S(=O)(=O)C(C)C` [Compound 46, 3-(isopropylsulfonyl)-4-methyl-N-(2-((4-(3-(1-methyl-1H-pyrazol-3-yl)phenyl)thiazol-2-yl)amino)-2-oxoethyl)benzamide], the “BRM Max % Inhibition” value on BRM is greater than 95%. Moreover, the IC50 was 0.1 to 1 µM at BRM (read-out: BRM IC50 (μM)*) and 1 to 5 µM at BRG-1 (read-out: BRG1 IC50 (μM)*). For the same compound, the Emax at BRG-1 was greater than 60%.

With `CSCC[C@H](NC(=O)c1cccc(C(C)(C)CN)c1)C(=O)Nc1nc(-c2cccc(-c3ccncc3)c2)cs1` [Compound 48, (S)-3-(1-amino-2-methylpropan-2-yl)-N-(4-(methylthio)-1-oxo-1-((4-(3-(pyridin-4-yl)phenyl)thiazol-2-yl)amino)butan-2-yl)benzamide], the “BRM Max % Inhibition” value on BRM is given as greater than 95%. In addition, the IC50 on BRM (read-out: BRM IC50 (μM)*) and on BRG-1 (read-out: BRG1 IC50 (μM)*) was 0.1 to 1 µM in each case. The Emax at BRG-1 is greater than 80%.

In the case of `COc1cc(-c2cccc(-c3csc(NC(=O)CNC(=O)c4cccc(C(C)(C)CN)c4)n3)c2)ccn1` [Compound 49, 3-(1-amino-2-methylpropan-2-yl)-N-(2-((4-(3-(2-methoxypyridin-4-yl)phenyl)thiazol-2-yl)amino)-2-oxoethyl)benzamide], the “BRM Max % Inhibition” value at BRM is greater than 80%. Also, the IC50 was 0.1 to 1 µM at BRM (read-out: BRM IC50 (μM)*) and greater than 5 µM on BRG-1 (read-out: BRG1 IC50 (μM)*). In addition, the Emax at BRG-1 is greater than 60%.

Turning to `CC(C)(CN)c1cccc(C(=O)NCC(=O)Nc2nc(-c3cccc(-c4cc(C#N)cc(C#N)c4)c3)cs2)c1` [Compound 50, 3-(1-amino-2-methylpropan-2-yl)-N-(2-((4-(3′,5′-dicyano-[1,1′-biphenyl]-3-yl)thiazol-2-yl)amino)-2-oxoethyl)benzamide], the “BRM Max % Inhibition” value on BRM is on record as greater than 90%. Further, the IC50 is 0.1 to 1 µM at BRM (read-out: BRM IC50 (μM)*) and 1 to 5 µM on BRG-1 (read-out: BRG1 IC50 (μM)*). Besides, the Emax at BRG-1 was greater than 70%.

Take `CC(C)(CN)c1cccc(C(=O)NCC(=O)Nc2nc(-c3cccc(-c4cc(Cl)cc(Cl)c4)c3)cs2)c1` [Compound 51, 3-(1-amino-2-methylpropan-2-yl)-N-(2-((4-(3′,5′-dichloro-[1,1′-biphenyl]-3-yl)thiazol-2-yl)amino)-2-oxoethyl)benzamide]: the “BRM Max % Inhibition” value at BRM is listed as greater than 80%. Moreover, the figures for the IC50 on BRM (read-out: BRM IC50 (μM)*) and at BRG-1 (read-out: BRG1 IC50 (μM)*) were 0.1 to 1 µM and greater than 5 µM, respectively. In addition, the Emax on BRG-1 was greater than 50%.

On to `CC(C)(CN)c1cccc(C(=O)NCC(=O)Nc2nc(-c3cccc(-c4cc(C#N)cc(CO)c4)c3)cs2)c1` [Compound 52, 3-(1-amino-2-methylpropan-2-yl)-N-(2-((4-(3′-cyano-5′-(hydroxymethyl)-[1,1′-biphenyl]-3-yl)thiazol-2-yl)amino)-2-oxoethyl)benzamide], for which the “BRM Max % Inhibition” value at BRM is greater than 80%. Also, the IC50 on BRM (read-out: BRM IC50 (μM)*) lay in the range of 0.1 to 1 µM; on BRG-1 (read-out: BRG1 IC50 (μM)*), 1 to 5 µM. In addition, the Emax on BRG-1 is greater than 70%.
